Laboratory results: paper PMC11555526, “Development of 2-Aminoadenine-Based Proteolysis-Targeting Chimeras (PROTACs) as Novel Potent Degraders of Monopolar Spindle 1 and Aurora Kinases” (ACS Pharmacology & Translational Science, 2024)

Key:
Assay type in all cases: cell-based
TTK [1] = target: T1, TTK (Homo sapiens, UniProt P33981); test: Immunoblot of TTK in naive MV4-11 cells; design: endogenous in cells; host or cells: naive MV4-11; conditions: 6 h
T1 sequence (P33981 1-857): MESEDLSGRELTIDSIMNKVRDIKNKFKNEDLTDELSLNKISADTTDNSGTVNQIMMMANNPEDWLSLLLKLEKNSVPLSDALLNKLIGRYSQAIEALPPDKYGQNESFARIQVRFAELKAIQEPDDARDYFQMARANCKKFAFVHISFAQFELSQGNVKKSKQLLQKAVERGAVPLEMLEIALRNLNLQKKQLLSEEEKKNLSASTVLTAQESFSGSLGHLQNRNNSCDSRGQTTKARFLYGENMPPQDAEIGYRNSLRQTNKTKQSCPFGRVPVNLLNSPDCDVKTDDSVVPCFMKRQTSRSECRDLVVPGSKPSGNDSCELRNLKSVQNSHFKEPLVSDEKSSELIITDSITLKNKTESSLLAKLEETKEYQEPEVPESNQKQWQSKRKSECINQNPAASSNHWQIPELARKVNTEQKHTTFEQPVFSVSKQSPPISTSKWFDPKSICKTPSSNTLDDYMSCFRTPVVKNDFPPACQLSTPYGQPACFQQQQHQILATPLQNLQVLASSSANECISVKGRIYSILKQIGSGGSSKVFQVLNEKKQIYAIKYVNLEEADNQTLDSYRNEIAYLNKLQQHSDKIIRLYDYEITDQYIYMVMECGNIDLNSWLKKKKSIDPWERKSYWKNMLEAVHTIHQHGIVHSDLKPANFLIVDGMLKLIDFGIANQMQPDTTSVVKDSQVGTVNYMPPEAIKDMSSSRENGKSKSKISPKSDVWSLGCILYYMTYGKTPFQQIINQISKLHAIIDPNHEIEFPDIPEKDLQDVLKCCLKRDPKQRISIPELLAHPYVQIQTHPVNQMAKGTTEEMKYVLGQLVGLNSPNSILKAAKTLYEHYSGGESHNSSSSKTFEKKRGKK
Protocol: (§1) The cells were treated with compounds or vehicle for indicated time points and lysed in RIPA lysis buffer (50 mM HEPES pH 7.9, 140 mM NaCl, 1 mM EDTA, 1% Triton X-100, 0.1% SDS, 0.1% sodium deoxycholate) containing protease and phosphatase inhibitors (Sigma) for 20 min at 4 °C. Cell lysates were cleared by centrifugation, and protein concentration was determined with bicinchoninic acid assay. Equal amounts of protein per sample were separated by Bis-Tris-PAGE and transferred to PVDF membranes (Millipore). The membranes were blocked with 5% (w/v) nonfat dry milk in TBS-T [20 mM Tris–HCl, pH 7.5, 150 mM NaCl, 0.1% (v/v) Tween-20] for 1 h at room temperature and incubated with primary antibody at 4 °C overnight. Visualization was carried out using horseradish peroxidase (HRP)-labeled secondary antibodies and detected using a chemiluminescent HRP substrate (Millipore) in LAS3000 or LAS4000 mini (Fujifilm). Vinculin, GAPDH, or B-actin were used as a loading control. The loading control was probed along with the target antibody by cutting the membrane. For targets with similar molecular weights, the samples were run in duplicate and probed with their respective loading controls, although only one control was shown in the figure for all targets. The signal was quantified using ImageJ or Image Studio Lite against the corresponding loading controls. Antibodies used in this study were as follows: Aurora A/AIK (Cell Signaling Technology, 3092), Aurora B (Bethyl Laboratories, A300–431A), TTK (Santa Cruz Biotechnology, sc-56968), GAPDH (Cell Signaling Technology, 2118), B-Actin (Sigma, A5441), and Vinculin (Sigma, V9131).
(§2) α GAPDH α Vinculin α B-Actin
(§3) Figure S2: Cellular degradation studies of SF1-based compounds. […]
GAPDH was used as a loading control. (E-
(§4) Immunoblots of TTK and AURKB. Naive MV4-11 cells were treated with indicated concentration of 44 or 47 G)
(§5) (E), 18 (F), and 14 or 20 (G) for 6 h and compared with vehicle treated cells. […]
(§6) All HiBiT data are represented as a mean ±s.d. from n=2 replicates. […]

AURKB = target: T2, AURKB (Homo sapiens, UniProt Q96GD4); test: Immunoblot of AURKB in naive MV4-11 cells; conditions: 6 h, 10 µM
T2 construct: endogenous in cells; host or cells: naive MV4-11
Protocol: as §1, §2, §3, §4, §5, §6

TTK [2] = target: T1, TTK; test: Immunoblot of TTK in HiBiT-TTK cells; design: endogenous in cells; host or cells: naive MV4-11; conditions: 6 h, 10 µM
Protocol: as §1, with “Antibodies used in this study were as follows: Aurora A/AIK (Cell Signaling Technology, 3092), Aurora B (Bethyl Laboratories, A300–431A), TTK (Santa Cruz Biotechnology, sc-56968), GAPDH (Cell Signaling Technology, 2118), B-Actin (Sigma, A5441), and Vinculin (Sigma, V9131).” left out

T2 sequence (Q96GD4 whole entry): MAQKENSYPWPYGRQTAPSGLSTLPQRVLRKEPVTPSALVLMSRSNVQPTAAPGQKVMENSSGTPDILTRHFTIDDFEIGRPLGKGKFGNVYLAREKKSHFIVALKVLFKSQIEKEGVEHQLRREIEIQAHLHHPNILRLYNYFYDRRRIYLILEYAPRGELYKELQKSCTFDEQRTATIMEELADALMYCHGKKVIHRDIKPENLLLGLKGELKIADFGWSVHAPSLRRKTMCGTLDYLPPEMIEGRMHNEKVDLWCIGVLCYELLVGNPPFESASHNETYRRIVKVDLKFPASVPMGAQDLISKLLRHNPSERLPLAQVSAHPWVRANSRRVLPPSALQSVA

Row | relative TTK level (immunoblot quantification, vehicle = 1.00) (TTK [1]; 10 µM) | relative AURKB level (immunoblot quantification, vehicle = 1.00) (AURKB) | relative TTK level (immunoblot quantification, vehicle = 1.00) (TTK [1]; 0.01 µM) | relative TTK level (immunoblot quantification, vehicle = 1.00) (TTK [1]; 1 µM) | relative TTK level (immunoblot quantification, vehicle = 1.00) (TTK [2]) | Structure (SMILES)
1 | 1.16 | 0.87 | – | – | – | CC(C)S(=O)(=O)c1ccccc1Nc1nc(Nc2ccc(N3CCN(C(=O)CCCC(=O)Nc4cccc5c4C(=O)N(C4CCC(=O)NC4=O)C5=O)CC3)cc2)nc2[nH]cnc12 (stereo not shown) [Compound 14]
2 | 0.67 | 0.79 | 1.00 | 1.00 | – | Cc1ncsc1-c1ccc(CNC(=O)[C@@H]2C[C@@H](O)CN2C(=O)[C@@H](NC(=O)CCCC(=O)N2CCN(c3ccc(Nc4nc(Nc5ccccc5S(=O)(=O)C(C)C)c5nc[nH]c5n4)cc3)CC2)C(C)(C)C)cc1 [Compound 44]
3 | – | – | – | – | 0.48 | Cc1ncsc1-c1ccc(CNC(=O)[C@@H]2C[C@@H](O)CN2C(=O)[C@@H](NC(=O)COCCOCC(=O)N2CCN(c3ccc(Nc4nc(Nc5ccccc5S(=O)(=O)C(C)C)c5nc[nH]c5n4)cc3)CC2)C(C)(C)C)cc1 [Compound 49]
